Laboratory results from patent publication US20250215029A1 (Recludix Pharma, Inc., priority 2022, published 2025).

Assays:
[1] = biological target: T1, Recombinant STAT6 protein (STAT6 (W123-T658)) (Homo sapiens, UniProt P42226); assay: STAT6 Fluorescence Polarization (FP) Assay; type: binding; settings: STAT6 (W123-T658) 250 nM, probe 5-FAM-Ap[…]-NH2 2 nM, 45-minute incubation; read-out: STAT6 (FP assay IC50 class)
T1 construct: Recombinant STAT6 protein (STAT6 (W123-T658))
T1 sequence (P42226 123-658): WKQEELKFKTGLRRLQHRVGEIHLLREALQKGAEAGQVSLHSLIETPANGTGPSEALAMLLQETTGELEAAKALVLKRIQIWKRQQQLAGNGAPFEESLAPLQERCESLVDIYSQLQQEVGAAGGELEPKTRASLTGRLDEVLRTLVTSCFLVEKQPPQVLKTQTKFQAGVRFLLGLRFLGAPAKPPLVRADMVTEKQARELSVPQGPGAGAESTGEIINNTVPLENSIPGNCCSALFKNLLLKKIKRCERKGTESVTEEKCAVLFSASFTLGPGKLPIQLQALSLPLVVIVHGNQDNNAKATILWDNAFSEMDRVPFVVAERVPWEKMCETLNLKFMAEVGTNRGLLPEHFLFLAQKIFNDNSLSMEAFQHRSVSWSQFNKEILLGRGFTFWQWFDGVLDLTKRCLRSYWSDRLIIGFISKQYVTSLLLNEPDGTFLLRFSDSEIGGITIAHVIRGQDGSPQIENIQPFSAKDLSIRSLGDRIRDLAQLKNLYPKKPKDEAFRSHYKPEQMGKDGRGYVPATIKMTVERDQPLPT
Summary of the method: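 Fluorescence polarization (mP) read-out: 250 nM STAT6 (W123-T658) plus 2 nM 5-FAM phosphotyrosine peptide, 45 min, room temperature, 1% DMSO. IC50 by nonlinear fit of mP against log compound concentration.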

[2] = biological target: T2, Recombinant STAT3 protein (STAT3 (G127-I722)) (Homo sapiens, UniProt P40763); assay: STAT3 Fluorescence Polarization (FP) Assay; type: binding; settings: STAT3 (G127-I722) 25 nM, probe 5-FAM-GpYLPQTV-NH2 2 nM, 45-minute incubation; read-out: STAT3 (FP assay IC50 class)
T2 construct: Recombinant STAT3 protein (STAT3 (G127-I722))
T2 sequence (P40763 127-722): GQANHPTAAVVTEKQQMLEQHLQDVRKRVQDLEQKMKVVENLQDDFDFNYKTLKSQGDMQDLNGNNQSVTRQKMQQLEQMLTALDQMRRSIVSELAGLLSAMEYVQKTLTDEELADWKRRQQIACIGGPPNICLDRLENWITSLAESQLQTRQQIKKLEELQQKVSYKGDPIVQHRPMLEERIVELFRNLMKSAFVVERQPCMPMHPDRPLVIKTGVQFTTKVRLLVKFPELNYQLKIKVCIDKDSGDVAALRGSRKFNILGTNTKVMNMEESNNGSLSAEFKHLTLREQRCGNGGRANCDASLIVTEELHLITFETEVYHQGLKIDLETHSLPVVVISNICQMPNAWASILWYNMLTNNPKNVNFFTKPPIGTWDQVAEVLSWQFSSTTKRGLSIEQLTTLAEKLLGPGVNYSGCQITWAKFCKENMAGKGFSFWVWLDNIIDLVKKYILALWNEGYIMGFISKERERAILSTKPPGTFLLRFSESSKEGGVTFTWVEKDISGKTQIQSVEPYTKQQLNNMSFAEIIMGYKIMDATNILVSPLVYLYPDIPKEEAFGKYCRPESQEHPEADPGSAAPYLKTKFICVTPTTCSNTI
Summary of the method: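 In this competition FP format, STAT3 residues G127-I722 (25 nM) and 2 nM 5-FAM-GpYLPQTV-NH2 met test compounds for 45 min at room temperature. IC50 values result from fitting mP signal against log concentration by nonlinear regression.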

| Compound | IC50 [1] [µM] | IC50 [2] [µM] |
| --- | --- | --- |
| CN(C)c1ccncc1C1CN(C(=O)[C@@H]2CC[C@@H]3CCC[C@H](NC(=O)c4cc5cc([C@H](F)P(=O)(O)O)ccc5s4)C(=O)N32)C1 (single isomer, unassigned) [Compound 634] | 0.3 to 3 | < 0.1 |
| Cc1ccncc1C1CN(C(=O)[C@@H]2CC[C@@H]3CCC[C@H](NC(=O)c4cc5cc([C@H](F)P(=O)(O)O)ccc5s4)C(=O)N32)C1 (single isomer, unassigned) [Compound 636] | 3 to 30 | < 0.1 |
| CN(C)c1ncncc1C1CN(C(=O)[C@@H]2CC[C@@H]3CCC[C@H](NC(=O)c4cc5cc([C@H](F)P(=O)(O)O)ccc5s4)C(=O)N32)C1 (single isomer, unassigned) [Compound 665] | 3 to 30 | < 0.1 |
| CN(C)c1ncncc1C1CN(C(=O)[C@@H]2CC[C@@H]3CCC[C@H](NC(=O)c4cc5cc([C@@H](F)P(=O)(O)O)ccc5s4)C(=O)N32)C1 (single isomer, unassigned) [Compound 667] | 3 to 30 | < 0.1 |
| COC[C@@H]1CCN1c1ncncc1C1CN(C(=O)[C@@H]2CC[C@@H]3CCC[C@H](NC(=O)c4cc5cc([C@@H](F)P(=O)(O)O)ccc5s4)C(=O)N32)C1 (single isomer, unassigned) [Compound 669] | 3 to 30 | < 0.1 |
| Cc1nnc([C@H]2[C@H](c3ccccc3)CN2C(=O)[C@@H]2CC[C@@H]3CCC[C@H](NC(=O)c4cc5cc(C(F)P(=O)(O)O)ccc5s4)C(=O)N32)o1 (single isomer, unassigned) [Compound 674] | 3 to 30 | 0.1 to 1 |
| C[C@H]1C[C@H]2CC[C@@H](C(=O)N3CC(c4cncnc4N4CCC4)C3)N2C(=O)[C@@H](NC(=O)c2cc3cc([C@H](F)P(=O)(O)O)ccc3s2)C1 (single isomer, unassigned) [Compound 676] | 3 to 30 | < 0.1 |
| C[C@H]1C[C@H]2CC[C@@H](C(=O)N3CC(c4cncnc4N4CCC4)C3)N2C(=O)[C@@H](NC(=O)c2cc3cc([C@@H](F)P(=O)(O)O)ccc3s2)C1 (single isomer, unassigned) [Compound 677] | 3 to 30 | < 0.1 |
| CN(C)c1c(F)cncc1C1CN(C(=O)[C@@H]2CC[C@@H]3CCC[C@H](NC(=O)c4cc5cc([C@H](F)P(=O)(O)O)ccc5s4)C(=O)N32)C1 (single isomer, unassigned) [Compound 685] | 3 to 30 | < 0.1 |
| O=C(N[C@H]1CCC[C@H]2CC[C@@H](C(=O)N3CC(c4cncnc4N4CCC4)C3)N2C1=O)c1cc2cc([C@H](F)P(=O)(O)O)ccc2s1 (single isomer, unassigned) [Compound 689] | 0.3 to 3 | < 0.1 |
| O=C(N[C@H]1CCC[C@H]2CC[C@@H](C(=O)N3CC(c4cncnc4N4CCC4)C3)N2C1=O)c1cc2cc([C@@H](F)P(=O)(O)O)ccc2s1 (single isomer, unassigned) [Compound 690] | 3 to 30 | < 0.1 |
| CN(C)C(=O)c1ccncc1C1CN(C(=O)[C@@H]2CC[C@@H]3CCC[C@H](NC(=O)c4cc5cc([C@@H](F)P(=O)(O)O)ccc5s4)C(=O)N32)C1 (single isomer, unassigned) [Compound 696] | 3 to 30 | 1 to 10 |
| COc1c(C2CN(C(=O)[C@@H]3CC[C@@H]4CCC[C@H](NC(=O)c5cc6cc([C@@H](F)P(=O)(O)O)ccc6s5)C(=O)N43)C2)ccnc1Cl (single isomer, unassigned) [Compound 698] | 3 to 30 | 0.1 to 1 |
| COc1nccc(C2CN(C(=O)[C@@H]3CC[C@@H]4CCC[C@H](NC(=O)c5cc6cc([C@@H](F)P(=O)(O)O)ccc6s5)C(=O)N43)C2)c1F (single isomer, unassigned) [Compound 700] | 3 to 30 | 0.1 to 1 |
| CN(C)c1cc(C2CN(C(=O)[C@@H]3CC[C@@H]4CCC[C@H](NC(=O)c5cc6cc([C@@H](F)P(=O)(O)O)ccc6s5)C(=O)N43)C2)ccn1 (single isomer, unassigned) [Compound 701] | 3 to 30 | 0.1 to 1 |
| COc1cc(C2CN(C(=O)[C@@H]3CC[C@@H]4CCC[C@H](NC(=O)c5cc6cc([C@@H](F)P(=O)(O)O)ccc6s5)C(=O)N43)C2)ccn1 (single isomer, unassigned) [Compound 702] | 3 to 30 | 0.1 to 1 |
| CNc1c(F)cncc1C1CN(C(=O)[C@@H]2CC[C@@H]3CCC[C@H](NC(=O)c4cc5cc([C@H](F)P(=O)(O)O)ccc5s4)C(=O)N32)C1 (single isomer, unassigned) [Compound 703] | 3 to 30 | < 0.1 |
| Cn1ccc(C2CN(C(=O)[C@@H]3CC[C@@H]4CCC[C@H](NC(=O)c5cc6cc([C@@H](F)P(=O)(O)O)ccc6s5)C(=O)N43)C2)cc1=O (single isomer, unassigned) [Compound 708] | 3 to 30 | 0.1 to 1 |
| CCOc1cc(C2CN(C(=O)[C@@H]3CC[C@@H]4CCC[C@H](NC(=O)c5cc6cc([C@@H](F)P(=O)(O)O)ccc6s5)C(=O)N43)C2)ccn1 (single isomer, unassigned) [Compound 709] | 3 to 30 | 0.1 to 1 |
| CN(C)c1nccc(C2CN(C(=O)[C@@H]3CC[C@@H]4CCC[C@H](NC(=O)c5cc6cc([C@@H](F)P(=O)(O)O)ccc6s5)C(=O)N43)C2)n1 (single isomer, unassigned) [Compound 710] | 3 to 30 | 0.1 to 1 |
| O=C(N[C@H]1CCC[C@H]2CC[C@@H](C(=O)N3CC(c4ccnc(N5CCOCC5)c4)C3)N2C1=O)c1cc2cc([C@@H](F)P(=O)(O)O)ccc2s1 (single isomer, unassigned) [Compound 712] | 3 to 30 | 1 to 10 |
| CN(C)c1cncc(C2CN(C(=O)[C@@H]3CC[C@@H]4CCC[C@H](NC(=O)c5cc6cc([C@H](F)P(=O)(O)O)ccc6s5)C(=O)N43)C2)c1Cl (single isomer, unassigned) [Compound 713] | 3 to 30 | 0.1 to 1 |
| C[C@@H]1[C@@H](c2cccnc2)CN1C(=O)[C@@H]1CC[C@@H]2CCC[C@H](NC(=O)c3cc4cc(C(F)P(=O)(O)O)ccc4s3)C(=O)N21 (single isomer, unassigned) [Compound 738] | 0.3 to 3 | < 0.1 |
| Cc1ccncc1C1CN(C(=O)[C@@H]2CC[C@@H]3C[C@H](C)C[C@H](NC(=O)c4cc5cc([C@H](F)P(=O)(O)O)ccc5s4)C(=O)N32)C1 (single isomer, unassigned) [Compound 740] | 3 to 30 | < 0.1 |
| O=C(N[C@H]1CCC[C@H]2CC[C@@H](C(=O)N3CC(c4cnccc4N4CCC4)C3)N2C1=O)c1cc2cc([C@@H](F)P(=O)(O)O)ccc2s1 (single isomer, unassigned) [Compound 741] | 0.3 to 3 | < 0.1 |
| O=C(N[C@H]1CCC[C@H]2CC[C@@H](C(=O)N3CC(c4cnccc4N4CCC4)C3)N2C1=O)c1cc2cc([C@H](F)P(=O)(O)O)ccc2s1 (single isomer, unassigned) [Compound 742] | 0.3 to 3 | < 0.1 |
| O=C(N[C@H]1CCC[C@H]2CC[C@@H](C(=O)N3CC(c4cnccc4N4CCOCC4)C3)N2C1=O)c1cc2cc([C@@H](F)P(=O)(O)O)ccc2s1 (single isomer, unassigned) [Compound 745] | 3 to 30 | < 0.1 |
| O=C(N[C@H]1CCC[C@H]2CC[C@@H](C(=O)N3CC(c4cnccc4N4CCOCC4)C3)N2C1=O)c1cc2cc([C@H](F)P(=O)(O)O)ccc2s1 (single isomer, unassigned) [Compound 746] | 3 to 30 | < 0.1 |
